Laboratory results reported in patent US9938238B2, “Anti-auxin compounds” (priority 2015, dated 2018).

What was measured:
Format in all cases: in vivo, Arabidopsis
ctr1-3 seedlings = assay: Seedling triple response of constitutive ethylene response mutant ctr1-3 (library screen and follow-up); conditions: etiolated ctr1-3 in air, 4 d, 50 μM of each chemical
Procedure: For screening for chemicals that reduce ethylene response, Arabidopsis ctr1-3 seeds were planted on a microtiter plate containing PNS media in the presence of individual chemicals (50 μM concentration of each) from the Microsource Spectrum Collection. Seedlings were grown in the dark for 4 d after which they were scored for manifestation of the ethylene responsive triple response. For all other growth experiments, seedlings were planted on PNS media supplemented with the relevant chemical (Deslauriers and Larsen, 2010). For conditions requiring pamoic acid, media was supplemented with Pamoic acid disodium salt (Sigma Life Science, St. Louis, Mo.). Measurement of ethylene production was conducted as previously described (Deslauriers and Larsen, 2010).
A chemical library screen was performed in which etiolated seedlings of the constitutive ethylene response mutant, ctr1-3, were grown in air for 4 d in the presence of chemicals from the Microsource Spectrum Collection, a bioactive and natural compound library consisting of 2000 different compounds. ctr1-3 seedlings were scored for presentation of the ethylene regulated seedling triple response, consisting of severe hypocotyl and root shortening and exaggerated apical hook formation.

Col-0 wt seedlings = assay: Blockage of auxin dependent inhibition of root growth; conditions: for root length, auxin alone: light, 7 d, 150 nM NAA or 300 nM IAA versus untreated roots
Procedure: For screening for chemicals that reduce ethylene response, Arabidopsis ctr1-3 seeds were planted on a microtiter plate containing PNS media in the presence of individual chemicals (50 μM concentration of each) from the Microsource Spectrum Collection. Seedlings were grown in the dark for 4 d after which they were scored for manifestation of the ethylene responsive triple response. For all other growth experiments, seedlings were planted on PNS media supplemented with the relevant chemical (Deslauriers and Larsen, 2010). For conditions requiring pamoic acid, media was supplemented with Pamoic acid disodium salt (Sigma Life Science, St. Louis, Mo.). Measurement of ethylene production was conducted as previously described (Deslauriers and Larsen, 2010). […]

DR5::GUS = assay: GUS analysis of auxin responsive DR5::GUS reporter line; conditions: for GUS activity in root tip and mature region of the root, auxin alone: 100 nM NAA or 750 nM IAA
Procedure: GUS analysis of DR5::GUS lines was performed as previously described (Ni et al., 2001).
Auxin responsiveness has also been assessed using the Arabidopsis DR5::GUS transgenic line in which several auxin response elements are fused upstream of the GUS reporter gene (Ni et al., 2001). Normally, treatment of DR5::GUS lines with exogenous auxin leads to increased GUS levels, which can be visualized through accumulation of blue color upon adding X-Gluc.

[1] = test system: ETR2, AtEBP, ACO2 expression; assay: Northern analysis of ethylene responsive gene expression in seedlings; conditions: Col-0 wt, hydroponic, dark 4 d
Procedure: (§1) Total RNA was extracted from leaf tissue using the RNeasy Plant Mini Kit (Qiagen, Valencia, Calif.). 10 μg of total RNA was separated by electrophoresis in a 1% (w/v) denaturing agarose gel, after which the RNA was blotted to Zeta-Probe GT Blotting Membrane (Bio-Rad, Hercules, Calif.). ^32P-labelled probes were generated using the RadPrime DNA labeling system (Invitrogen).
Manifestation of ethylene response is dependent on transcriptional induction of ethylene-regulated genes (Alonso et al., 2003; Chao et al., 1997; Solano et al., 1998). This relies on two primary transcription factors, EIN3 and EIL1, with mutational loss of both causing nearly complete ethylene insensitivity. It could be predicted that since PA treatment limits ethylene response it would also reduce or prevent ethylene inducible gene expression similar to the ethylene insensitive ein3-1; eil1-1 double mutant. To test this, Col-0 wt seedlings were treated with 5 μM AgNO3 or increasing concentrations of ethylene in the absence or presence of 25 μM PA, which is also a concentration that results in blockage of ethylene response. […] The latter two genes are not properly expressed in a group of enhanced ethylene response Arabidopsis mutants, with these argued to be members of a subset of ethylene regulated genes whose products are required for controlling the magnitude of ethylene response (Christians and Larsen, 2007; Christians et al., 2008; Deslauriers and Larsen, 2010; Robles et al., 2007).
In contrast to PA treatment, auxin has an antagonistic relationship regarding induction of this same subset of genes. Col-0 wt seedlings were grown hydroponically in the dark for 4 d in the presence of 5 μM AgNO3, 1 μM ACC or 10 μM ACC in the absence or presence of 10 μM 1-naphthaleneacetic acid (NAA) after which tissue was collected for RNA isolation and Northern analysis.

[2] = test system: chiB and PDF1.2 expression; assay: Expression of ethylene regulated defense genes in leaves; conditions: 24 h
Procedure: as §1
For this analysis, Arabidopsis plants were grown hydroponically for 13 d after which they were treated with or without 10 μM ACC in the absence or presence of 25 μM PA, with all samples exposed to 10 μM+/−JA for the 24 h treatment period. […] Auxin functions in a synergistic manner with ethylene and JA to control expression of PDF1.2, with addition of auxin resulting in its hyperinduction (Robles et al., 2012).

CN1CCCN=C1/C=C/c1cccs1 [Pyrantel pamoate]
apical hook formation in chemical library screen (ctr1-3 seedlings): blocked apical hook formation
root length in chemical library screen (ctr1-3 seedlings): measurably longer roots

O=C(O)Cc1cccc2ccccc12 [NAA, 1-naphthaleneacetic acid]
root length, auxin alone (Col-0 wt seedlings): severe root growth inhibition
GUS activity in root tip and mature region of the root, auxin alone (DR5::GUS): increased GUS activity
induction of ACO2 and AtEBP ([1]; 1 μM or 10 μM ACC plus 10 μM NAA): nearly eliminated induction
ETR2 expression ([1]; ACC treatments plus 10 μM NAA): no obvious effect on ETR2 expression
chiB and PDF1.2 levels ([2]; 10 μM ACC supplemented with 250 nM NAA): far greater than what was observed following treatment with ACC alone

O=C(O)Cc1c[nH]c2ccccc12 [IAA, indole-3-acetic acid]
root length, IAA alone (Col-0 wt seedlings; 5 days, 300 nM IAA in the absence of Tolmetin (FIG. 6)): severely inhibitory to roots
root length, auxin alone (Col-0 wt seedlings): severe root growth inhibition
GUS activity in root tip and mature region of the root, auxin alone (DR5::GUS): increased GUS activity
lateral root initiation, auxin alone (DR5::GUS; 750 nM IAA (FIG. 8)): promotes initiation of lateral roots

NC1(C(=O)O)CC1 [ACC, 1-aminocyclopropane-1-carboxylic acid]
induction of ACO2 and AtEBP ([1]; 1 μM or 10 μM ACC without NAA): normal ethylene responsive induction
chiB and PDF1.2 expression ([2]; plants grown 13 d hydroponically, 10 μM ACC, 10 μM JA): increased expression
